# Measurements: ChEMBL document CHEMBL1201862, “PubChem BioAssay data set” (2004)
# Activity calls are given as the source filed them.
# What was measured:
# [1] = target: Voltage-dependent T-type calcium channel subunit alpha-1H (Homo sapiens, UniProt O95180); assay type: functional;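 further: channel activity triggered by adding a high calcium stimulation buffer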
# BJ [2] = test: cytotoxicity toward BJ-TERT fibroblasts, dose response, cell-based, RAS-independent, luminescence (AID 1933); assay type: functional; details: Homo sapiens
# [3] = Luminescence Cell-Based Dose Confirmation HTS to Identify Inhibitors of Platelet Dense Granule Release. [Related pubchem assays: 1663 (Primary HTS), 1678 (Summary of Project)]; assay type: functional
# [4] = cytotoxicity toward DRD oncogenic fibroblasts, dose response, cell-based, non-viral oncogenic, luminescence (AID 1934); assay type: functional; details: Homo sapiens
# [5] = target: Luciferin 4-monooxygenase (Photinus pyralis, UniProt P08659); test: firefly luciferase enzyme inhibitors, dose response, biochemical, luminescence (AID 1891)
# BJ [6] = test: cells; assay type: functional, cell-based; details: Homo sapiens
# BJ [7] = test: cytotoxicity toward BJ-TERT-LT-ST fibroblasts, dose response, cell-based, RAS-independent, luminescence (AID 1935); assay type: functional; details: Homo sapiens;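 further: BJ fibroblasts immortalized with TERT plus LT and ST oncogenes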
# Cytochrome P450 2D6 = Cytochrome P450 2D6 (Homo sapiens, UniProt P10635);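 further: CYP2D6 member of a cytochrome P450 panel assay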
# [8] = NIH-3T3 fibroblast cytotoxicity, dose response, cytotoxicity control, cell-based, fluorescence, Alamar Blue, secondary assay (AID 2327); assay type: functional;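 further: NIH-3T3 mouse fibroblasts cultured with fluconazole at 8 µg/mL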
# [9] = target: T1, Calpain-2 catalytic subunit (Sus scrofa, UniProt P43367); test: pig calpain II inhibitor potency, dose response, biochemical, fluorogenic peptide substrate (AID 1420); assay type: functional
# T1 sequence (P43367 whole entry): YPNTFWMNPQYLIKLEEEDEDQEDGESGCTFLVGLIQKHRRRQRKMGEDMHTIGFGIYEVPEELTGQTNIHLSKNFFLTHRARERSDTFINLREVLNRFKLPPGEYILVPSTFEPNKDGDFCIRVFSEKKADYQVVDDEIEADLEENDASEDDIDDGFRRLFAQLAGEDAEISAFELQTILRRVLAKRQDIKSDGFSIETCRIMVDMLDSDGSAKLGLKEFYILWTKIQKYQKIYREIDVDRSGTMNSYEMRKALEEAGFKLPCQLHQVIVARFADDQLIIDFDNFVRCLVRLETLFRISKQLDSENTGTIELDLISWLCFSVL
# Aminopeptidase N = target: T2, Aminopeptidase N (Plasmodium falciparum FcB1/Columbia, UniProt O96935); test: P. falciparum M1AAP inhibitors, biochemical, fluorogenic H-Leu-NHMec substrate, 1536-well (AID 1445); parameters: species or system Plasmodium falciparum 3D7, 3D7
# T2 sequence (O96935 whole entry): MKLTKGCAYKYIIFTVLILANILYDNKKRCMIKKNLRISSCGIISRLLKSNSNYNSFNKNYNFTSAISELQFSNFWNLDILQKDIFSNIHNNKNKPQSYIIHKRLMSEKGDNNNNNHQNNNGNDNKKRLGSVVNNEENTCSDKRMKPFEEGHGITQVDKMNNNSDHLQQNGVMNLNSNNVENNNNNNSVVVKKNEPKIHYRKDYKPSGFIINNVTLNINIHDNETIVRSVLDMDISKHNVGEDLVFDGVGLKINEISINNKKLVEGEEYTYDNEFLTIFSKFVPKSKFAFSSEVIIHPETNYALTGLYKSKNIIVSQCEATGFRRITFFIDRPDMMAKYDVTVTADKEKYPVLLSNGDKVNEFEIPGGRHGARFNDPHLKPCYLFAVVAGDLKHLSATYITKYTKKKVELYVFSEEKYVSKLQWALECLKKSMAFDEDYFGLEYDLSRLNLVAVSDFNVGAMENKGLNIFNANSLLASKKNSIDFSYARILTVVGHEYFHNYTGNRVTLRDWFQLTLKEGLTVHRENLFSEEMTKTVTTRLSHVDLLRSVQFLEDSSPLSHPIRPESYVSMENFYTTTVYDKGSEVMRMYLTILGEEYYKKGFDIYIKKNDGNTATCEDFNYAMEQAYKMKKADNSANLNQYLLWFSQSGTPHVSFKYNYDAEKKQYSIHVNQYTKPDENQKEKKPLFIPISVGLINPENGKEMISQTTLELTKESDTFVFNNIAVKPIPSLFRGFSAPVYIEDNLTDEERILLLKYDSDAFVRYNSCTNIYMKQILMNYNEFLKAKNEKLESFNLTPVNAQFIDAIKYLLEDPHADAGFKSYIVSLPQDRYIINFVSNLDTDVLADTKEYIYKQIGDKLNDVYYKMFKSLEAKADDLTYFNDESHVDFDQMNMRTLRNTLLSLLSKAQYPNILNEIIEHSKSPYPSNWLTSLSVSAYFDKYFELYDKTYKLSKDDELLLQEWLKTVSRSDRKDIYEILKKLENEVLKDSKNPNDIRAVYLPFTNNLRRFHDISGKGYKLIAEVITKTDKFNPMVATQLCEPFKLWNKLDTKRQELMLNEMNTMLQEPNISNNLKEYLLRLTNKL
# [10] = HEp-2 cell cytotoxicity, dose response, cytotoxicity control for RSV inhibitor project, HTS (AID 2410); assay type: functional; details: human respiratory syncytial virus
# [11] = Luminescence Cell-Based Dose Response HTS to Identify Inhibitors of 5'UTR Stem-Loop Driven Prion Protein mRNA Translation in H4 Neuroglioblastoma Cells. [Related pubchem assays: 1827 (Project Summary), 1813 (Primary HTS)]; assay type: functional
# [12] = inhibitors of SNCA 5'UTR-driven reporter translation, confirmation, H4 neuroglioma cells, luminescence (AID 1988); assay type: functional, cell-based
# [13] = inhibitors of firefly luciferase expression or activity, dose response, H4 neuroglioma cells, luminescence (AID 1990); assay type: functional, cell-based
# Fatty acid synthase [14] = target: T3, Fatty acid synthase (Homo sapiens, UniProt P49327); test: FAS thioesterase domain inhibitors, dose response, biochemical, kinetic fluorescence intensity (AID 624326); assay type: functional;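 further: rate of fluorescence rise from hydrolysis of a fluorogenic O-methyl fluorescein ester substrate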
# T3 sequence (P49327 whole entry, the tested form may be a part): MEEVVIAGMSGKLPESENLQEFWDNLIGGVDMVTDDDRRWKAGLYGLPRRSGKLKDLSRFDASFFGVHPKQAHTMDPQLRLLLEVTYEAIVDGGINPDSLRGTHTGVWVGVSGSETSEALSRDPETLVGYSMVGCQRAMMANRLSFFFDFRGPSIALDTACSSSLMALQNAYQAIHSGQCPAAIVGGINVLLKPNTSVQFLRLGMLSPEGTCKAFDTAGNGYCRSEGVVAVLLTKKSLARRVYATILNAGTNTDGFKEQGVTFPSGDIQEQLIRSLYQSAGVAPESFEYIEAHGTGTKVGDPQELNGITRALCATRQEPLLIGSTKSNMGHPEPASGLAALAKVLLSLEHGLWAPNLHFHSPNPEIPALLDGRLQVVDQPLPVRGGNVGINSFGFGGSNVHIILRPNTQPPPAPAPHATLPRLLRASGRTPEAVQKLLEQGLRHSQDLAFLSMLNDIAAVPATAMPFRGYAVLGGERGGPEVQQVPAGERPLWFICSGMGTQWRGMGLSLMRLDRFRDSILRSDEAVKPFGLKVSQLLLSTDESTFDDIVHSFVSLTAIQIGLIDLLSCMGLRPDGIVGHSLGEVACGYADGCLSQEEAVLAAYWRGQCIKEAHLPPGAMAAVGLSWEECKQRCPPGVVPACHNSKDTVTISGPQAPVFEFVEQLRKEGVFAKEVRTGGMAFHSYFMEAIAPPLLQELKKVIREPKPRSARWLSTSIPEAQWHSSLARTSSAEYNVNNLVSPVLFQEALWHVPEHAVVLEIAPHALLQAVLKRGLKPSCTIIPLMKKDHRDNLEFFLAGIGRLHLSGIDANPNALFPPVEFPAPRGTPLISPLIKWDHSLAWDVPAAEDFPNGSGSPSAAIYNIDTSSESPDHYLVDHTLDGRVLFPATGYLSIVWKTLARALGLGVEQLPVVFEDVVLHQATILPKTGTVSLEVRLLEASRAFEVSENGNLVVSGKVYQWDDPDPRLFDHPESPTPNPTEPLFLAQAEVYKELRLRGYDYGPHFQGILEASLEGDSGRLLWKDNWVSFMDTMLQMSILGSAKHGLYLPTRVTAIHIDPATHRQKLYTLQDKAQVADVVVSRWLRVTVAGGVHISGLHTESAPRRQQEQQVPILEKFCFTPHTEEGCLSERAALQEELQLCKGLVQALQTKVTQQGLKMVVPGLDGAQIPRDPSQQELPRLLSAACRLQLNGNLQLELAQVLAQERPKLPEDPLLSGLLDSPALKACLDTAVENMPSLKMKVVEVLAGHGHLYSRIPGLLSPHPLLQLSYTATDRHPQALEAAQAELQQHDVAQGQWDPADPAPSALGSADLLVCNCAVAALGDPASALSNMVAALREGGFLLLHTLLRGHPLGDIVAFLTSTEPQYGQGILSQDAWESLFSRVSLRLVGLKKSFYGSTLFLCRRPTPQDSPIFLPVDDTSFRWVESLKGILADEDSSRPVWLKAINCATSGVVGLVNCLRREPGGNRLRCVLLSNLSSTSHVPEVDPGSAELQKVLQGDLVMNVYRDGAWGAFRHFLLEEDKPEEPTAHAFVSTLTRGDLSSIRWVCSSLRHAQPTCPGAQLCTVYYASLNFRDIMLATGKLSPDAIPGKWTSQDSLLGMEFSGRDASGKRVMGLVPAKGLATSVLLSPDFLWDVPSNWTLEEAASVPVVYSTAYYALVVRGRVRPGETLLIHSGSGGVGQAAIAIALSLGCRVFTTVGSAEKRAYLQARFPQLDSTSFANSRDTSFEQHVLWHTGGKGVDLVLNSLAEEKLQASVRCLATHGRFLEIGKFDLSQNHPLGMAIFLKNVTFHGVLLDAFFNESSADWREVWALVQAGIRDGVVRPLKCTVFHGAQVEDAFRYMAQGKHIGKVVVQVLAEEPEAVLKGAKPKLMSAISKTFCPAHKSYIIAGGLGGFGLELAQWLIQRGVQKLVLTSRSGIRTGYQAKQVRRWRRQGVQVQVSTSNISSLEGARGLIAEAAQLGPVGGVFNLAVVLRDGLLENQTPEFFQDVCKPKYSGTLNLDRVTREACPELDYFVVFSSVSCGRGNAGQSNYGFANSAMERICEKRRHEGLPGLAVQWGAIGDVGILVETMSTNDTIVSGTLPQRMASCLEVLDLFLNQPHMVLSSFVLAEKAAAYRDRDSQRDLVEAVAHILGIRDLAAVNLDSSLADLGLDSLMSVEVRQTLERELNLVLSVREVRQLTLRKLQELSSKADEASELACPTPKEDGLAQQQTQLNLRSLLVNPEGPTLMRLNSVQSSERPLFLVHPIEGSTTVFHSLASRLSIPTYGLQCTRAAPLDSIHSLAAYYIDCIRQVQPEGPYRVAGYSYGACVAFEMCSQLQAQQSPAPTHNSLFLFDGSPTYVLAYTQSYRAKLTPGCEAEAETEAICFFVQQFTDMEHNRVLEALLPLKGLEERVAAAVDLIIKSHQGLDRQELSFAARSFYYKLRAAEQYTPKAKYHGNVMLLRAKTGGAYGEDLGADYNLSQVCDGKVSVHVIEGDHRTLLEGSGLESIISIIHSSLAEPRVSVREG
# [15] = cytotoxicity toward NIH3T3 fibroblasts, dose response, counter-screen, cell-based, ATP luminescence, mouse fibroblasts (AID 2010); assay type: functional;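 further: cells exposed to compound for about 90 hours before reading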
# Fatty acid synthase [16] = target: T3, Fatty acid synthase; test: FAS thioesterase domain inhibitors, dose response, biochemical, endpoint fluorescence intensity, uHTS hits (AID 624327); assay type: functional;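 further: fluorescence from hydrolysis of an O-methyl fluorescein acyl ester substrate by the enzyme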
# [17] = inhibitors of intracellular T. cruzi replication, confirmation, NIH3T3 host cells, beta-gal luminescence (AID 2044); assay type: functional, cell-based;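 further: intracellular parasites grown in NIH/3T3 mouse fibroblasts as host cells; luminescent beta-galactosidase reporter signal from transgenic T. cruzi replicating inside host cells; inhibitors lower the luminescence signal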
# H9c2 = test: cells; assay type: functional, cell-based; details: Rattus norvegicus, H9c2, Myocardium;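 further: confirmatory concentration-response retest of ultra-high-throughput screening hits for modulation of myocardial damage; cell death induced by hydrogen peroxide oxidative stress; compound pretreatment for 60 min then peroxide exposure for 2 h; potency is for protecting the cells against peroxide damage rather than for killing them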
# [18] = C. albicans growth with fluconazole, confirmation, fluorescence, retest (AID 2467); assay type: functional, cell-based
# [19] = microbe, parasite or virus in culture; assay type: functional; details: Mycobacterium tuberculosis
# [20] = target: T4, Mannose-6-phosphate isomerase (Homo sapiens, UniProt P34949); test: human PMI inhibitors, high substrate, primary screen, biochemical, fluorescence intensity, high mannose 6-phosphate (AID 1220)
# T4 sequence (P34949 whole entry): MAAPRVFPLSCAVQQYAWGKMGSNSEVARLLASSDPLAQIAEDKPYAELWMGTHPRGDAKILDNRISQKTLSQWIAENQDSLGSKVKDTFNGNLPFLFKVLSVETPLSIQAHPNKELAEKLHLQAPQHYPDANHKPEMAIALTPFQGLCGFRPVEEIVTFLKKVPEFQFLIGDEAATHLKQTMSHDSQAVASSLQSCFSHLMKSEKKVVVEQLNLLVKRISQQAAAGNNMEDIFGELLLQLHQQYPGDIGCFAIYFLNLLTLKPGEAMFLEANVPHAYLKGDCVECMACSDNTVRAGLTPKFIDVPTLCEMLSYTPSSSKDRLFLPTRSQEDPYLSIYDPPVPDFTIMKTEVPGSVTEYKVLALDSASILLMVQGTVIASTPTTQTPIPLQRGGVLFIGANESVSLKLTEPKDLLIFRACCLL
# [21] = Luminescence Cell-Based Dose Retest to Confirm Inhibitors of Cancer Stem Cells. [Related pubchem assays (depositor defined):AID2717, AID2721]; assay type: functional; details: Homo sapiens
# Cytochrome P450 1A2 = target: T5, Cytochrome P450 1A2 (Homo sapiens, UniProt P05177);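 further: PubChem cytochrome P450 panel assay, CYP1A2 panel member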
# T5 sequence (P05177 whole entry): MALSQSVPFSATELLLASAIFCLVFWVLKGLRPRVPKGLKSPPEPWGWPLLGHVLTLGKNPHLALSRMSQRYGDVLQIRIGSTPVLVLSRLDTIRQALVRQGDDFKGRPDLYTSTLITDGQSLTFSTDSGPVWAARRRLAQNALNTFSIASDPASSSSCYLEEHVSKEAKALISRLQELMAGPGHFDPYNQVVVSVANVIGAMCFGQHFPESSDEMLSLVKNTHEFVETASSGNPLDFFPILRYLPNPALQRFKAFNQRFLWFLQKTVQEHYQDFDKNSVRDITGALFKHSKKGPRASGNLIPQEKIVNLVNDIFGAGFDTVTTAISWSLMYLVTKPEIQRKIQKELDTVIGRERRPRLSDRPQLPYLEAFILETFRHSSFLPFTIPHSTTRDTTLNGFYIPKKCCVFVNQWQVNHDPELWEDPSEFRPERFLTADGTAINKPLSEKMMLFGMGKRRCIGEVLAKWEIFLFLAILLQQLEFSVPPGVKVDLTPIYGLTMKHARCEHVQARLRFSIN
# Paired box protein Pax-8 = Paired box protein Pax-8 (Homo sapiens, UniProt Q06710); test: inhibitors of PAX8-driven TPO luciferase reporter, dose response, RMG-I cells, cherry-pick (AID 687027); assay type: functional, cell-based;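 further: luciferase reporter driven by Pax8 target thyroperoxidase promoter measured by SteadyGlo luminescence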
# [22] = growth suppression of PTEN-null colon cells, dose response, cell-based, HCT116 PTEN knockout (AID 1047); assay type: functional;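 further: HCT116 colon tumor cells with PTEN knocked out; cells exposed to compound for 60 hours before readout; potency for loss of cell viability measured by luminescence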
# [23] = growth suppression of beta-catenin-knockout colon cells, dose response, cell-based, HCT116, human colon tumor (AID 1045); assay type: functional;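 further: HCT116 colon tumor cells with beta catenin knocked out; cells exposed to compound for 60 hours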
# Voltage-dependent T-type calcium channel subunit alpha-1H, sequence (O95180 whole entry): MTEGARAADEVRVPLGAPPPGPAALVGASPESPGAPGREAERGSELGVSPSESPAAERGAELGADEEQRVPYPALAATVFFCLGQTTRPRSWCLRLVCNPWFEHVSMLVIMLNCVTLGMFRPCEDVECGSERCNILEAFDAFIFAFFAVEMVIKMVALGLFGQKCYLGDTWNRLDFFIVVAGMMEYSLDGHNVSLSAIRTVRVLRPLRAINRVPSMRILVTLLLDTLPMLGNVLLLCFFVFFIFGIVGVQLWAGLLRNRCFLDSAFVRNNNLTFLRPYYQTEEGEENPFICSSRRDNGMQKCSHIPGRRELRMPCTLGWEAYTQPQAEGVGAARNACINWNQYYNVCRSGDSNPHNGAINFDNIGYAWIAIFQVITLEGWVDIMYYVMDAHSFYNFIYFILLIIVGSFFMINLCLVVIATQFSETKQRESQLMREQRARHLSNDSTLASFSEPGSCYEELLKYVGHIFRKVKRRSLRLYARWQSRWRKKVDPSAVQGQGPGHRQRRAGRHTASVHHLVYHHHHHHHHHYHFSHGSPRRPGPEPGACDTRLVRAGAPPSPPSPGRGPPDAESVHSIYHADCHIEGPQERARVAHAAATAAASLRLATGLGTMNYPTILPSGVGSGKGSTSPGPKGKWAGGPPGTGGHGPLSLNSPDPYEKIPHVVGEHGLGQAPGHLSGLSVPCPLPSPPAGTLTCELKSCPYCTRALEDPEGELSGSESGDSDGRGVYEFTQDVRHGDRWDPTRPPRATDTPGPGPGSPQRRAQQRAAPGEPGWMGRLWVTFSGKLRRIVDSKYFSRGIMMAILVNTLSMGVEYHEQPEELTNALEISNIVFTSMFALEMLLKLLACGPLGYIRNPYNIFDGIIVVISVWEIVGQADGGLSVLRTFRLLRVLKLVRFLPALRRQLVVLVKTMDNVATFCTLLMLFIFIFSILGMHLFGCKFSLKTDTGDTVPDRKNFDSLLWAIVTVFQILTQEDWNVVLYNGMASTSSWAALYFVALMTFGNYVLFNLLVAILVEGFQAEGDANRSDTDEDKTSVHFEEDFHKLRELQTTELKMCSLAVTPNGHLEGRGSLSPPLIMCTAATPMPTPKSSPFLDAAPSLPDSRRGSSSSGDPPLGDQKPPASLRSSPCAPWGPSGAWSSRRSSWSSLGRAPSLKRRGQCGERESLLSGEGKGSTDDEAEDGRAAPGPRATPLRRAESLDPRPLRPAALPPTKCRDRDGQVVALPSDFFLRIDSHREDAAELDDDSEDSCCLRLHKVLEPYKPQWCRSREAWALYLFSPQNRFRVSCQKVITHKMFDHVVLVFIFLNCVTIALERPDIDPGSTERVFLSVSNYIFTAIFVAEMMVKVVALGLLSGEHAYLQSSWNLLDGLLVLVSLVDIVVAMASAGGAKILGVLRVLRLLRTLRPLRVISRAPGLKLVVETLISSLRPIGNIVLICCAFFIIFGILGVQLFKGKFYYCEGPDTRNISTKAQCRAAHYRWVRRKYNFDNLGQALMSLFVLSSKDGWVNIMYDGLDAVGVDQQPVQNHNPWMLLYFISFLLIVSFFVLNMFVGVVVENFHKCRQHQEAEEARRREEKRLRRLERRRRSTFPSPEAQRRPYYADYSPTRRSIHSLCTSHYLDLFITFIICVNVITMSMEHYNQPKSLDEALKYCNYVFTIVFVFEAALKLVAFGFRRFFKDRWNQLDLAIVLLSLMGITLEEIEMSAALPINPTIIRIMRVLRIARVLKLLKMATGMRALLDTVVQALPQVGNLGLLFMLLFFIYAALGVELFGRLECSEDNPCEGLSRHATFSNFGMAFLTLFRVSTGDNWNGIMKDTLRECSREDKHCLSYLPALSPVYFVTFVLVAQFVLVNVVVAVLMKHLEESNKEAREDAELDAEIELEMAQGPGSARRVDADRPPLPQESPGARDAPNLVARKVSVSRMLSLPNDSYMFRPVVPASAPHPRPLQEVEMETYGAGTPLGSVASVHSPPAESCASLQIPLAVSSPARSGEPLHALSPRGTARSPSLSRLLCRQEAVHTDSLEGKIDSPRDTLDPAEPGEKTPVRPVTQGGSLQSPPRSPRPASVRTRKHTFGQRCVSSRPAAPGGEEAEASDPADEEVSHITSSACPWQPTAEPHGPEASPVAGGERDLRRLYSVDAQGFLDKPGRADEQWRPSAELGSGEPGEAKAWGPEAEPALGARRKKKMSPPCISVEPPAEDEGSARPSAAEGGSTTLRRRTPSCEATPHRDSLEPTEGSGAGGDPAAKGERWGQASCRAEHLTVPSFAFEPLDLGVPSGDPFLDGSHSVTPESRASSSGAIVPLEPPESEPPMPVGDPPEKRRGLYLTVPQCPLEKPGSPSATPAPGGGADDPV
structure (smiles),measurement,setting,value
Cc1snc(S(=O)(=O)/C(C#N)=N/Nc2cccc(C(F)(F)F)c2)c1C#N,EC50,[1],7.53 µM (active)
OC[C@H]1O[C@@H](n2cnc3c(NCCc4ccccc4)ncnc32)[C@H](O)[C@@H]1O,EC50,BJ [2],15.2 µM (inconclusive)
same,EC50,[3],0.893 µM (active)
same,EC50,[4],18.9 µM (active)
same,EC50,[5],> 112 µM (not active)
same,EC50,BJ [6],35.4 µM (active)
same,EC50,BJ [7],> 150 µM (not active)
COc1cccc(N(C(=O)Cn2nnc(-c3ccc(C)cc3)n2)C(C(=O)NC(C)(C)C)c2c[nH]c3ccccc23)c1 (configuration not stated),EC50,[1],8.67 µM (active)
same,AC50,Cytochrome P450 2D6,20 µM (inconclusive)
O=C(CCCN1C(=O)c2ccccc2C1=O)C1=C(NCCO)CC(c2ccccc2)CC1=O (configuration not stated),EC50,[8],> 150 µM (inactive)
same,IC50,[9],30.4 µM (not active)
CC1(C)CC(=O)c2c(oc3ccc(NS(=O)(=O)c4ccc(C(=O)O)cc4)cc23)C1,IC50,Aminopeptidase N,26 µM (active)
CCOC(=O)N1CCN(Cc2cc(=O)oc3cc4c(cc23)CCC4)CC1,EC50,[3],> 112 µM (not active)
same,EC50,[5],> 112 µM (not active)
CC(C)c1ccc(NC(S)=NC2CCN(Cc3ccccc3)CC2)cc1,EC50,[3],> 112 µM (not active)
same,EC50,[5],> 112 µM (not active)
same,CC50,[10],20.6 µM (active)
Cc1ccccc1C(=O)NC1CCN(C(=O)N2CCOCC2)CC1,EC50,[3],> 112 µM (not active)
same,EC50,[5],> 112 µM (not active)
COCCNc1nc(N)c([N+](=O)[O-])c(NC2CCCCC2)n1,EC50,[11],> 120 µM (not active)
same,EC50,[12],77.7 µM (active)
same,EC50,[13],16.2 µM (active)
CS(=O)(=O)N1CCc2cc(-c3csc(NC(=O)Cc4ccccc4)n3)ccc21,EC50,[11],20.9 µM (active)
same,IC50,Fatty acid synthase [14],5.12 µM (active)
same,EC50,[15],> 60 µM (not active)
same,EC50,[12],> 120 µM (not active)
same,EC50,[13],> 120 µM (not active)
same,IC50,Fatty acid synthase [16],8.79 µM (active)
same,EC50,[17],1.08 µM (active)
Cc1ccc(NCc2ccc(O)c3ncccc23)cc1C,IC50,H9c2,> 79 µM (inactive)
same,EC50,[8],> 160 µM (inconclusive)
same,EC50,[18],> 38 µM (not active)
same,CC50,[19],33.9 µM (active)
same,IC50,[20],> 50 µM (not active)
Cc1cc(N2CCN(c3ccc(C(F)(F)F)cc3[N+](=O)[O-])CC2)c2ccccc2n1,CC50,[19],> 40 µM (active)
same,AC50,[21],0.726 µM (active)
O=C(N/C(=C/C=C\c1ccccc1)C(=O)N1CCOCC1)c1ccc(Br)cc1,EC50,[11],> 120 µM (not active)
same,IC50,Fatty acid synthase [14],7.63 µM (active)
same,EC50,[12],> 120 µM (not active)
same,EC50,[13],> 120 µM (not active)
same,IC50,Fatty acid synthase [16],7.92 µM (active)
COc1ccc(CNc2nc3ccccc3n2Cc2ccccc2)cc1OC,EC50,[1],7.3 µM (active)
same,AC50,Cytochrome P450 1A2,22.4 µM (inconclusive)
CCOc1ccccc1CNC(=O)C1CCN(c2nnc(C)c3c(C)n(-c4ccc(C)cc4)nc23)CC1,EC50,[11],12.6 µM (active)
same,EC50,[15],9.4 µM (active)
same,EC50,[12],9.02 µM (active)
same,EC50,[13],8.11 µM (active)
same,EC50,[17],1.45 µM (active)
Cc1cc(C)c(NC(=O)C(C)c2cccc(C(=O)c3ccccc3)c2)c(C)c1 (configuration not stated),EC50,[1],3.26 µM (active)
Cc1ccc(-c2csc3ncnc(SCc4ccc(C(=O)O)cc4)c23)cc1,IC50,Aminopeptidase N,44.6 µM (active)
O=C(NCCN1C(=O)S/C(=C\c2ccc(OC(F)F)cc2)C1=O)c1cnccn1,EC50,[11],26.3 µM (active)
same,AC50,Paired box protein Pax-8,15.5 µM (active)
same,EC50,[12],> 120 µM (not active)
same,EC50,[13],> 120 µM (not active)
CCO/C(O)=C1\C(C)=NC(SCC(=O)Nc2nc(C)cs2)=C(C#N)C1c1cccs1 (configuration not stated),EC50,[22],14.5 µM (active)
same,CC50,[19],> 40 µM (active)
same,EC50,[23],16.6 µM (active)
C=CCN(CC=C)Cc1nc(N)nc(Nc2ccccc2C)n1,IC50,[9],< 0.4 µM (not active)
COc1ccc(-c2nc(C[S+]([O-])CC(=O)NC3CCCCC3C)c(C)o2)cc1 (configuration not stated),EC50,[3],> 112 µM (not active)
same,EC50,[5],> 112 µM (not active)
COc1ccc(/C=N/OCC(=O)Nc2ccc3c(c2)OCO3)c(OC)c1,IC50,[9],> 50 µM (not active)
O=C(C1=C[C@@H](c2csc3ccccc23)C[C@@H](OCCCCO)O1)N1CCN(Cc2ccc3c(c2)OCO3)CC1,CC50,[19],> 40 µM (active)
